Results taken from the supplement of paper PMC10307832.

Columns and labels:
Test in all cases: relative viability (nuclei count vs DMSO), 5 days (fraction); higher = more cells survive
[1] = tested on: BEN
In short: (§1)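 Nuclei were stained with Hoechst during a one-step fixation (final 0.05% Triton X-100, 1% formaldehyde, 1 ug/ml Hoechst) carried out 5 days after dosing, then counted on 4× images. The cells, lung cancer lines in 1536-well plates, had been dosed by pin tool the day after seeding with one drug alone or a fixed anchor-drug dose plus five library-drug doses (not always all listed) in √10 steps. Relative viability is the nuclei count in treated wells divided by that in vehicle wells, and each value is the median of duplicate plates.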

[2] = tested on: COR-L23
In short: as §1

[3] = tested on: LK-2
In short: as §1

[4] = tested on: NCI-H2087
In short: as §1

[5] = tested on: NCI-H1650
In short: as §1

[6] = tested on: NCI-H2126
In short: as §1

[7] = tested on: NCI-H2347
In short: as §1

[8] = tested on: LCLC-103H
In short: as §1

[9] = tested on: NCI-H460
In short: as §1

[10] = tested on: LXF-289
In short: as §1

[11] = tested on: NCI-H441
In short: as §1

[12] = tested on: NCI-H1651
In short: as §1

[13] = tested on: EKVX
In short: as §1

[14] = tested on: HCC-44
In short: as §1

[15] = tested on: EMC-BAC-2
In short: as §1

[16] = tested on: NCI-H596
In short: as §1

[17] = tested on: 201T
In short: as §1

[18] = tested on: NCI-H1793
In short: as §1

[19] = tested on: HCC-827
In short: as §1

[20] = tested on: NCI-H1915
In short: as §1

[21] = tested on: EPLC-272H
In short: as §1

[22] = tested on: NCI-H358
In short: as §1

[23] = tested on: SW 1573
In short: as §1

[24] = tested on: A-427
In short: as §1

[25] = tested on: SW 900
In short: as §1

CCCCCCCCCCCC1=C(O)C(=O)C=C(O)C1=O [Embelin] + CS(=O)(=O)N1CCN(Cc2cc3nc(-c4cccc5[nH]ncc45)nc(N4CCOCC4)c3s2)CC1 [Pictilisib] (partner 1 µM)
relative viability ([1]; first compound 0.08 µM): 0.583 | relative viability ([1]; first compound 0.8 µM): 0.704 | relative viability ([1]; first compound 2.53 µM): 0.743 | relative viability ([1]; first compound 8 µM): 0.556 | relative viability ([2]; first compound 0.08 µM): 0.832 | relative viability ([2]; first compound 0.8 µM): 0.958 | relative viability ([2]; first compound 2.53 µM): 0.874 | relative viability ([2]; first compound 8 µM): 0.93 | relative viability ([3]; first compound 0.08 µM): 0.567 | relative viability ([3]; first compound 0.8 µM): 0.578 | relative viability ([3]; first compound 2.53 µM): 0.63 | relative viability ([3]; first compound 8 µM): 0.562 | relative viability ([4]; first compound 0.08 µM): 0.885 | relative viability ([4]; first compound 0.8 µM): 0.96 | relative viability ([4]; first compound 2.53 µM): 1.24 | relative viability ([4]; first compound 8 µM): 0.827 | relative viability ([5]; first compound 0.08 µM): 0.695 | relative viability ([5]; first compound 0.8 µM): 0.715 | relative viability ([5]; first compound 2.53 µM): 0.632 | relative viability ([5]; first compound 8 µM): 0.504 | relative viability ([6]; first compound 0.08 µM): 0.482 | relative viability ([6]; first compound 0.8 µM): 0.424 | relative viability ([6]; first compound 2.53 µM): 0.523 | relative viability ([6]; first compound 8 µM): 0.467 | relative viability ([7]; first compound 0.08 µM): 0.64 | relative viability ([7]; first compound 0.8 µM): 0.886 | relative viability ([7]; first compound 2.53 µM): 0.924 | relative viability ([7]; first compound 8 µM): 0.592 | relative viability ([8]; first compound 0.08 µM): 0.591 | relative viability ([8]; first compound 0.8 µM): 0.652 | relative viability ([8]; first compound 2.53 µM): 0.614 | relative viability ([8]; first compound 8 µM): 0.677 | relative viability ([9]; first compound 0.08 µM): 0.377 | relative viability ([9]; first compound 0.8 µM): 0.409 | relative viability ([9]; first compound 2.53 µM): 0.476 | relative viability ([9]; first compound 8 µM): 0.48 | relative viability ([10]; first compound 0.08 µM): 0.855 | relative viability ([10]; first compound 0.8 µM): 0.794 | relative viability ([10]; first compound 2.53 µM): 0.75 | relative viability ([10]; first compound 8 µM): 0.819 | relative viability ([11]; first compound 0.08 µM): 0.437 | relative viability ([11]; first compound 0.8 µM): 0.549 | relative viability ([11]; first compound 2.53 µM): 0.476 | relative viability ([11]; first compound 8 µM): 0.505 | relative viability ([12]; first compound 0.08 µM): 0.577 | relative viability ([12]; first compound 0.8 µM): 0.647 | relative viability ([12]; first compound 2.53 µM): 0.769 | relative viability ([12]; first compound 8 µM): 0.607 | relative viability ([13]; first compound 0.08 µM): 0.481 | relative viability ([13]; first compound 0.8 µM): 0.437 | relative viability ([13]; first compound 2.53 µM): 0.406 | relative viability ([13]; first compound 8 µM): 0.501 | relative viability ([14]; first compound 0.08 µM): 0.62 | relative viability ([14]; first compound 0.8 µM): 0.61 | relative viability ([14]; first compound 2.53 µM): 0.678 | relative viability ([14]; first compound 8 µM): 0.7 | relative viability ([15]; first compound 0.08 µM): 0.498 | relative viability ([15]; first compound 0.8 µM): 0.533 | relative viability ([15]; first compound 2.53 µM): 0.442 | relative viability ([15]; first compound 8 µM): 0.476 | relative viability ([16]; first compound 0.08 µM): 0.389 | relative viability ([16]; first compound 0.8 µM): 0.432 | relative viability ([16]; first compound 2.53 µM): 0.481 | relative viability ([16]; first compound 8 µM): 0.357 | relative viability ([17]; first compound 0.08 µM): 0.645 | relative viability ([17]; first compound 0.8 µM): 0.685 | relative viability ([17]; first compound 2.53 µM): 0.649 | relative viability ([17]; first compound 8 µM): 0.613 | relative viability ([18]; first compound 0.08 µM): 0.344 | relative viability ([18]; first compound 0.8 µM): 0.366 | relative viability ([18]; first compound 2.53 µM): 0.361 | relative viability ([18]; first compound 8 µM): 0.218 | relative viability ([19]; first compound 0.08 µM): 1.03 | relative viability ([19]; first compound 0.8 µM): 1.04 | relative viability ([19]; first compound 2.53 µM): 1.16 | relative viability ([19]; first compound 8 µM): 1.19 | relative viability ([20]; first compound 0.08 µM): 1.06 | relative viability ([20]; first compound 0.8 µM): 1.08 | relative viability ([20]; first compound 2.53 µM): 0.952 | relative viability ([20]; first compound 8 µM): 0.919 | relative viability ([21]; first compound 0.08 µM): 0.319 | relative viability ([21]; first compound 0.8 µM): 0.427 | relative viability ([21]; first compound 2.53 µM): 0.334 | relative viability ([21]; first compound 8 µM): 0.276 | relative viability ([22]; first compound 0.08 µM): 0.425 | relative viability ([22]; first compound 0.8 µM): 0.39 | relative viability ([22]; first compound 2.53 µM): 0.315 | relative viability ([22]; first compound 8 µM): 0.294 | relative viability ([23]; first compound 0.08 µM): 0.475 | relative viability ([23]; first compound 0.8 µM): 0.546 | relative viability ([23]; first compound 2.53 µM): 0.555 | relative viability ([23]; first compound 8 µM): 0.527 | relative viability ([24]; first compound 0.08 µM): 0.857 | relative viability ([24]; first compound 0.8 µM): 0.862 | relative viability ([24]; first compound 2.53 µM): 0.654 | relative viability ([24]; first compound 8 µM): 0.656

CCCCCCCCCCCC1=C(O)C(=O)C=C(O)C1=O [Embelin] + NC(=O)Nc1cc(-c2cccc(F)c2)sc1C(=O)N[C@H]1CCCNC1 [AZD7762] (partner 0.2 µM)
relative viability ([1]; first compound 0.08 µM): 0.63 | relative viability ([1]; first compound 0.8 µM): 0.765 | relative viability ([1]; first compound 2.53 µM): 0.716 | relative viability ([1]; first compound 8 µM): 0.542 | relative viability ([3]; first compound 0.08 µM): 0.497 | relative viability ([3]; first compound 0.8 µM): 0.543 | relative viability ([3]; first compound 2.53 µM): 0.497 | relative viability ([3]; first compound 8 µM): 0.351 | relative viability ([4]; first compound 0.08 µM): 1.34 | relative viability ([4]; first compound 0.8 µM): 1.37 | relative viability ([4]; first compound 2.53 µM): 1.2 | relative viability ([4]; first compound 8 µM): 1.28 | relative viability ([6]; first compound 0.08 µM): 0.936 | relative viability ([6]; first compound 0.8 µM): 1.08 | relative viability ([6]; first compound 2.53 µM): 1.12 | relative viability ([6]; first compound 8 µM): 1 | relative viability ([7]; first compound 0.08 µM): 0.841 | relative viability ([7]; first compound 0.8 µM): 0.85 | relative viability ([7]; first compound 2.53 µM): 0.722 | relative viability ([7]; first compound 8 µM): 0.67 | relative viability ([8]; first compound 0.08 µM): 0.79 | relative viability ([8]; first compound 0.8 µM): 0.866 | relative viability ([8]; first compound 2.53 µM): 0.886 | relative viability ([8]; first compound 8 µM): 0.684 | relative viability ([25]; first compound 0.08 µM): 0.556 | relative viability ([25]; first compound 0.8 µM): 0.624 | relative viability ([25]; first compound 2.53 µM): 0.502 | relative viability ([25]; first compound 8 µM): 0.628 | relative viability ([9]; first compound 0.08 µM): 0.658 | relative viability ([9]; first compound 0.8 µM): 0.717 | relative viability ([9]; first compound 2.53 µM): 0.585 | relative viability ([9]; first compound 8 µM): 0.378 | relative viability ([10]; first compound 0.08 µM): 1.17 | relative viability ([10]; first compound 0.8 µM): 1.16 | relative viability ([10]; first compound 2.53 µM): 1.14 | relative viability ([10]; first compound 8 µM): 1.2 | relative viability ([11]; first compound 0.08 µM): 1.09 | relative viability ([11]; first compound 0.8 µM): 1.24 | relative viability ([11]; first compound 2.53 µM): 1.18 | relative viability ([11]; first compound 8 µM): 1.36 | relative viability ([12]; first compound 0.08 µM): 0.452 | relative viability ([12]; first compound 0.8 µM): 0.549 | relative viability ([12]; first compound 2.53 µM): 0.527 | relative viability ([12]; first compound 8 µM): 0.46 | relative viability ([13]; first compound 0.08 µM): 0.698 | relative viability ([13]; first compound 0.8 µM): 0.748 | relative viability ([13]; first compound 2.53 µM): 0.662 | relative viability ([13]; first compound 8 µM): 0.749 | relative viability ([14]; first compound 0.08 µM): 1.07 | relative viability ([14]; first compound 0.8 µM): 0.994 | relative viability ([14]; first compound 2.53 µM): 0.999 | relative viability ([14]; first compound 8 µM): 1.11 | relative viability ([15]; first compound 0.08 µM): 1.12 | relative viability ([15]; first compound 0.8 µM): 1.22 | relative viability ([15]; first compound 2.53 µM): 1.13 | relative viability ([15]; first compound 8 µM): 1.06 | relative viability ([16]; first compound 0.08 µM): 1.08 | relative viability ([16]; first compound 0.8 µM): 1.27 | relative viability ([16]; first compound 2.53 µM): 1.26 | relative viability ([16]; first compound 8 µM): 1.01 | relative viability ([17]; first compound 0.08 µM): 0.713 | relative viability ([17]; first compound 0.8 µM): 0.634 | relative viability ([17]; first compound 2.53 µM): 0.67 | relative viability ([17]; first compound 8 µM): 0.61 | relative viability ([18]; first compound 0.08 µM): 0.635 | relative viability ([18]; first compound 0.8 µM): 0.927 | relative viability ([18]; first compound 2.53 µM): 0.472 | relative viability ([18]; first compound 8 µM): 0.408 | relative viability ([19]; first compound 0.08 µM): 0.191 | relative viability ([19]; first compound 0.8 µM): 0.21 | relative viability ([19]; first compound 2.53 µM): 0.193 | relative viability ([19]; first compound 8 µM): 0.278 | relative viability ([20]; first compound 0.08 µM): 0.72 | relative viability ([20]; first compound 0.8 µM): 0.764 | relative viability ([20]; first compound 2.53 µM): 0.751 | relative viability ([20]; first compound 8 µM): 0.614 | relative viability ([21]; first compound 0.08 µM): 0.181 | relative viability ([21]; first compound 0.8 µM): 0.296 | relative viability ([21]; first compound 2.53 µM): 0.21 | relative viability ([21]; first compound 8 µM): 0.188 | relative viability ([22]; first compound 0.08 µM): 0.604 | relative viability ([22]; first compound 0.8 µM): 0.739 | relative viability ([22]; first compound 2.53 µM): 0.517 | relative viability ([22]; first compound 8 µM): 0.491 | relative viability ([24]; first compound 0.08 µM): 0.75 | relative viability ([24]; first compound 0.8 µM): 0.877 | relative viability ([24]; first compound 2.53 µM): 0.737 | relative viability ([24]; first compound 8 µM): 0.452
